{
  "source": "patent US20240239841A1",
  "about": "“PEPTIDE AND METHOD FOR TREATING PAIN USING THE SAME” (PELL BIO-MED TECHNOLOGY CO., LTD., priority 2019, published 2024)",
  "key": {"[1]": {"test_system": "ICR mice with CFA-induced arthritis (bilateral mechanical hyperalgesia)", "test": "Paw withdrawal threshold (PWT) by von Frey Filament in CFA-induced arthritis mice", "conditions": "for PWT value of ipsilateral hind paw / PWT value of contralateral paw: 90 min after administration; for time of best antinociceptive effect after administration: peptide 3 mg/kg, morphine 10 mg/kg, PWT determined at 0, 30, 60, 90, 120 min"}, "[2]": {"test_system": "C57BL/6JNarl male mice (radiant heat tail-flick)", "test": "Radiant heat tail-flick test", "type": "in vivo, C57BL/6JNarl mice", "conditions": "oral doses of 0.1 μg/kg, 0.3 μg/kg, 0.1 mg/kg, 1 mg/kg, 3 mg/kg and 10 mg/kg, among 0.01 μg/kg to 10 mg/kg tested; latency 10-90 min; FIG. 9", "protocol": "(§1) For conducting nociceptive pain and acid-induced chronic widespread pain experiments, C57BL/6JNarl male mice (20 to 25 g) were housed in an environment with temperature control (24±0.5° C.) and 12-hour light-dark cycle (lights on during 08:00-20:00) and allowed free access to standard laboratory food and tap water. Animals were allowed to acclimatize for 20 to 30 min prior to experimental manipulations. Animal care and handling procedures were adopted in accordance with the International Association for the Study of Pain guidelines for those animals used in pain research, and the procedures were approved by the Committee for Ethics in Animal Research.\nThe radiant heat tail-flick test was modified in accordance with F. E. D'Amour, D. L. Smith, A method for determining loss of pain sensation. The Journal of Pharmacology and Experimental Therapeutics 72, 74-79 (1941). The 5 to 12 mice from Preparation Example 3 were placed and acclimatized in the restrainers for 30 min prior to the tail-flick test. […] The latency was recorded every 10 min during the indicated time period (10-90 min) after oral administration with different dosages of the peptide of SEQ ID NO: 1 (0.01 μg/kg, 0.03 μg/kg, 0.1 μg/kg, 0.3 μg/kg, 1 μg/kg, 0.01 mg/kg, 0.1 mg/kg, 1 mg/kg, 3 mg/kg, and 10 mg/kg). Then the latency during 10-90 min was calculated. […]"}, "IL-6": {"test_system": "IL-6", "test": "Serum IL-6 by ELISA in CFA-induced arthritis mice after long-term oral administration", "type": "in vivo, ICR mice", "conditions": "3 mg/kg oral once a week, 4th to 12th week; serum at 12th week; vs water control; FIG. 2", "protocol": "(§2) On the other hand, the mice administered with water were served as the control group, which also comprised 6 mice. The mice in the experimental group and the control group were sacrificed on the 12th week after administration. The serum collection is conducted by cardiac puncture. The Mouse TNF-α Quantikine ELISA Kit (R&D System, MTA00B), Mouse IL-6 Quantikine ELISA Kit (R&D System, M600B) and enzyme-linked immunosorbent assay (ELISA) were used to determine and collect the serum concentration of TNF-α and IL-6 of mice in the experimental group and the control group."}, "TNF-α": {"test_system": "TNF-α", "test": "Serum TNF-α by ELISA in CFA-induced arthritis mice after long-term oral administration", "type": "in vivo, ICR mice", "conditions": "3 mg/kg oral once a week, 4th to 12th week; serum at 12th week; vs water control; FIG. 1", "protocol": "as §2"}, "[3]": {"test_system": "C57BL/6JNarl male mice (acetic acid-induced visceral pain)", "test": "Acetic acid-induced writhing (abdominal constriction) assay", "type": "in vivo, C57BL/6JNarl mice", "conditions": "oral doses of 1 μg/kg and 10 mg/kg, among 0.1 μg/kg to 10 mg/kg tested; 10 min before 1% acetic acid; FIG. 9", "protocol": "as §1\nAcid-induced abdominal constriction assay was performed in accordance with H. O. Collier, L. C. Dinneen, C. A. Johnson, C. Schneider, The abdominal constriction response and its suppression by analgesic drugs in the mouse. Br J Pharmacol Chemother 32, 295-310 (1968). In general, the mice from Preparation Example 3 were placed in a small observation chamber and habituated for 20 min. […] The numbers of abdominal constrictions in 30 min after acid injection were counted and the mean constriction numbers of mice of each group were calculated. […]"}},
  "note": "Non-standard residues stand in square brackets, D forms with d. pGlu = O=C1CC[C@@H](C(=O)O)N1",
  "data": [
    {"compound": "CN1CC[C@]23c4c5ccc(O)c4O[C@H]2[C@@H](O)C=C[C@H]3[C@H]1C5", "note": "[morphine, reference compound]", "values": [
      {"measurement": "PWT value of ipsilateral hind paw", "setting": "[1]; morphine 10 mg/kg oral on 4th week, rose from 0.085±0.015 g, FIG. 3", "result": "0.64 ± 0.089", "unit": "g"},
      {"measurement": "PWT value of contralateral paw", "setting": "[1]; morphine 10 mg/kg oral on 4th week, rose from 0.43±0.033 g, FIG. 4", "result": "1.96 ± 0.488", "unit": "g"},
      {"measurement": "time of best antinociceptive effect after administration", "setting": "[1]; oral", "result": 90, "unit": "min"}
    ]},
    {"compound": "Glp Glu Thr Ala Val Ser Ser His Glu Gln Asp ([pGlu]ETAVSSHEQD-OH; SMILES CC(C)[C@H](NC(=O)[C@H](C)NC(=O)[C@@H](NC(=O)[C@H](CCC(=O)O)NC(=O)[C@@H]1CCC(=O)N1)[C@@H](C)O)C(=O)N[C@@H](CO)C(=O)N[C@@H](CO)C(=O)N[C@@H](Cc1c[nH]cn1)C(=O)N[C@@H](CCC(=O)O)C(=O)N[C@@H](CCC(N)=O)C(=O)N[C@@H](CC(=O)O)C(=O)O) [peptide of SEQ ID NO: 1]", "values": [
      {"measurement": "antinociceptive effect in the radiant heat tail-flick test (% MPE)", "setting": "[2]", "result": "best antinociceptive effect"},
      {"measurement": "serum concentration of IL-6", "setting": "IL-6", "result": "decreased compared to the control group"},
      {"measurement": "serum concentration of TNF-α", "setting": "TNF-α", "result": "not detected (ND)"},
      {"measurement": "antinociceptive effect in the acid-induced writhing experiment (antinociceptive activity %)", "setting": "[3]", "result": "best antinociceptive effect"},
      {"measurement": "PWT value of ipsilateral hind paw", "setting": "[1]; 0.3 μg/kg oral, rose from 0.065 g, FIG. 7", "result": 1, "unit": "g"},
      {"measurement": "PWT value of contralateral paw", "setting": "[1]; 0.3 μg/kg oral, rose from 0.32 g, FIG. 8", "result": 1, "unit": "g"},
      {"measurement": "PWT value of ipsilateral hind paw", "setting": "[1]; 1 μg/kg oral, rose from 0.065 g, FIG. 7", "result": 0.6, "unit": "g"},
      {"measurement": "PWT value of contralateral paw", "setting": "[1]; 1 μg/kg oral, rose from 0.32 g, FIG. 8", "result": 1.4, "unit": "g"},
      {"measurement": "PWT value of ipsilateral hind paw", "setting": "[1]; 3 μg/kg oral, rose from 0.065 g, FIG. 7", "result": 0.16, "unit": "g"},
      {"measurement": "PWT value of contralateral paw", "setting": "[1]; 3 μg/kg oral, rose from 0.32 g, FIG. 8", "result": 1, "unit": "g"},
      {"measurement": "PWT value of ipsilateral hind paw", "setting": "[1]; 1 mg/kg oral once a week, 4th to 12th week, increased from 0.09 g, FIG. 5", "result": "0.5˜1 g"},
      {"measurement": "PWT value of contralateral paw", "setting": "[1]; 1 mg/kg oral once a week, 4th to 12th week, increased from 0.4 g at 3rd week, FIG. 6", "result": "0.6˜ 1.2 g"},
      {"measurement": "PWT value of ipsilateral hind paw", "setting": "[1]; 3 mg/kg oral once a week, 4th to 12th week, increased from 0.09 g of 3rd week, FIG. 5", "result": "0.63˜1 g"},
      {"measurement": "PWT value of contralateral paw", "setting": "[1]; 3 mg/kg oral once a week, 4th to 12th week, increased from 0.4 g, FIG. 6", "result": "0.87˜1.27 g"},
      {"measurement": "antinociceptive effects of 1 mg/kg and 3 mg/kg compared (PWT)", "setting": "[1]; oral, long-term administration once a week, 4th to 12th week", "result": "similar"},
      {"measurement": "time of best antinociceptive effect after administration", "setting": "[1]; oral", "result": 90, "unit": "min"},
      {"measurement": "PWT value of ipsilateral hind paw", "setting": "[1]; peptide 3 mg/kg oral on 4th week, rose from 0.07 g, FIG. 3", "result": "0.9 ± 0.156", "unit": "g"},
      {"measurement": "PWT value of contralateral paw", "setting": "[1]; peptide 3 mg/kg oral on 4th week, rose from 0.5±0.047 g, FIG. 4", "result": "1.35 ± 0.193", "unit": "g"},
      {"measurement": "antinociceptive effect compared with morphine (PWT)", "setting": "[1]; peptide 3 mg/kg oral vs morphine 10 mg/kg oral, lower amount required", "result": "antinociceptive effect similar to morphine"}
    ]}
  ]
}
